# US9205122B2, “Herbal composition comprising ginger and goldenrod for the treatment of cold and flu” (priority 2009, dated 2015)
# Columns and labels:
# [1] = test system: human influenza virus A/WS/33, H1N1; test: Plaque inhibition assay, influenza A/WS/33 on MDCK cell monolayer; type: cell-based; conditions: 0.05 mg/ml, read-out: inhibition of formation of lysis plaques
# [2] = test system: Human Influenza Virus A/CA/04/09 H1N1; test: organism not typed; type: cell-based; conditions: A/CA/04/09, MDCK, 72 h; mix as PL202:PL208
# [3] = test system: MDCK cells; conditions: no virus, 72 h, mix as PL202:PL208
# [4] = test system: influenza strain A/WS/33 (H1N1); test: Mouse influenza infection model (preventive and curative arms); type: in vivo, CD-1 mice; conditions: curative arm, oral daily from day 0; Tamiflu 10, Nutracan 350 mg/kg
# Method: Ginger, goldenrod and a combination thereof were assayed in a recognized animal model related to the prevention and treatment of the influenza virus (Cottey R, 2001). In this study, the ginger was assayed as a dry plant (rhizome) […] a CO2 extract. However, the relative quantity of the ginger dry plant used was equivalent to the ginger CO2 extract used in Example 1 (equivalent to the dry starting material). The ginger/goldenrod combination that was used also comprised blueberry dry powder. This formulation is named the Nutracan™ formulation and is described in Table II below.
# In this model, CD-1 mice (10 females per group) were inoculated intranasally with the influenza strain A/WS/33 (H1N1) at 1×10^3 PFU as determined in a preliminary study (data not shown). […]
# 1) Seven groups of CD1 mice were randomized based on their weight (n=10). […] Mice were sacrificed when their general state (including abnormal behaviour, determined by a veterinarian) had deteriorated or they had lost more than 20% of their weight.
Compound,inhibition at 50 µg/mL [1] [%],IC50 [2] [µg/mL],TC50 [3] [µg/mL],TC90 [3] [µg/mL],MDD (mean day of death) [4]
"CCOC(=O)C1=C[C@@H](OC(CC)CC)[C@H](NC(C)=O)[C@@H](N)C1 [Tamiflu, Oseltamivir phosphate]",52,0.1,>10.3,>10.3,7.6
NC(=O)c1ncn([C@@H]2O[C@H](CO)[C@@H](O)[C@H]2O)n1 [Ribavirin],,5.26,,,
